Assay results taken from ChEMBL document CHEMBL4118098, “Discovery of DS28120313 as a potent orally active hepcidin production inhibitor: Design and optimization of novel 4,6-disubstituted indazole derivatives” (Bioorg Med Chem Lett, 2017).
Each block holds one molecule with its values, some of them ahead of it.

How the values were obtained:
[1] = target: SRSF protein kinase 3 (Homo sapiens) (UniProt Q9UPE1); experiment: Inhibition of MSSK1 (unknown origin) at 0.19 uM relative to control
[2] = target: Receptor tyrosine-protein kinase erbB-4 (Homo sapiens) (UniProt Q15303); experiment: Inhibition of HER4 (unknown origin) at 0.19 uM relative to control
[3] = target: Aurora kinase A (Homo sapiens) (UniProt O14965); experiment: Inhibition of AurA (unknown origin) at 0.19 uM relative to control
[4] = target: Cyclin-dependent kinase 1/cyclin B1 (Homo sapiens) (UniProt P06493+P14635); experiment: Inhibition of CDK1/Cyclin B1 (unknown origin) at 0.19 uM relative to control; assay type: protein-complex assay
[5] = target: MAP kinase-interacting serine/threonine-protein kinase 2 (Homo sapiens) (UniProt Q9HBH9); experiment: Inhibition of MNK2 (unknown origin) at 0.19 uM relative to control
[6] = target: Activated CDC42 kinase 1 (Homo sapiens) (UniProt Q07912); experiment: Inhibition of ACK (unknown origin) at 0.19 uM relative to control
[7] = target: Protein-tyrosine kinase 2-beta (Homo sapiens) (UniProt Q14289); experiment: Inhibition of PYK2 (unknown origin) at 0.19 uM relative to control
[8] = target: Serine/threonine-protein kinase 10 (Homo sapiens) (UniProt O94804); experiment: Inhibition of LOK (unknown origin) at 0.19 uM relative to control
[9] = target: Platelet-derived growth factor receptor beta (Homo sapiens) (UniProt P09619); experiment: Inhibition of PDGFR beta (unknown origin) at 0.19 uM relative to control
[10] = target: Calcium/calmodulin-dependent protein kinase type IV (Homo sapiens) (UniProt Q16566); experiment: Inhibition of CAMK4 (unknown origin) at 0.19 uM relative to control
[11] = target: Dual specificity tyrosine-phosphorylation-regulated kinase 4 (Homo sapiens) (UniProt Q9NR20); experiment: Inhibition of DYRK4 (unknown origin) at 0.19 uM relative to control
[12] = target: Misshapen-like kinase 1 (Homo sapiens) (UniProt Q8N4C8); experiment: Inhibition of MINK (unknown origin) at 0.19 uM relative to control
[13] = target: Dual specificity protein kinase CLK3 (Homo sapiens) (UniProt P49761); experiment: Inhibition of CLK3 (unknown origin) at 0.19 uM relative to control
[14] = target: Serine/threonine-protein kinase PAK 4 (Homo sapiens) (UniProt O96013); experiment: Inhibition of PAK4 (unknown origin) at 0.19 uM relative to control
[15] = target: Mitogen-activated protein kinase kinase kinase kinase 5 (Homo sapiens) (UniProt Q9Y4K4); experiment: Inhibition of KHS1 (unknown origin) at 0.19 uM relative to control
[16] = target: Serine/threonine-protein kinase BRSK2 (Homo sapiens) (UniProt Q8IWQ3); experiment: Inhibition of BRSK2 (unknown origin) at 0.19 uM relative to control
[17] = target: Glycogen synthase kinase-3 beta (Homo sapiens) (UniProt P49841); experiment: Inhibition of GSK3b (unknown origin) at 0.19 uM relative to control
[18] = target: Insulin receptor (Homo sapiens) (UniProt P06213); experiment: Inhibition of INSR (unknown origin) at 0.19 uM relative to control
[19] = target: Discoidin domain-containing receptor 2 (Homo sapiens) (UniProt Q16832); experiment: Inhibition of DDR2 (unknown origin) at 0.19 uM relative to control
[20] = target: Calcium/calmodulin-dependent protein kinase type 1 (Homo sapiens) (UniProt Q14012); experiment: Inhibition of CaMK1a (unknown origin) at 0.19 uM relative to control
[21] = target: MAP kinase-activated protein kinase 2 (Homo sapiens) (UniProt P49137); experiment: Inhibition of MAPKAPK2 (unknown origin) at 0.19 uM relative to control
[22] = target: Aurora kinase C (Homo sapiens) (UniProt Q9UQB9); experiment: Inhibition of AurC (unknown origin) at 0.164 uM relative to control
[23] = target: Tyrosine-protein kinase Fgr (Homo sapiens) (UniProt P09769); experiment: Inhibition of FGR (unknown origin) at 0.164 uM relative to control
[24] = target: Homeodomain-interacting protein kinase 3 (Homo sapiens) (UniProt Q9H422); experiment: Inhibition of HIPK3 (unknown origin) at 0.164 uM relative to control
[25] = target: Cyclin-dependent kinase 2 (Homo sapiens) (UniProt P24941); experiment: Inhibition of CDK2 (unknown origin) at 0.164 uM relative to control
[26] = target: Serine/threonine-protein kinase Nek6 (Homo sapiens) (UniProt Q9HC98); experiment: Inhibition of NEK6 (unknown origin) at 0.164 uM relative to control
[27] = target: Hepatocyte growth factor receptor (Homo sapiens) (UniProt P08581); experiment: Inhibition of MET (unknown origin) at 0.164 uM relative to control
[28] = target: Ribosomal protein S6 kinase alpha-1 (Homo sapiens) (UniProt Q15418); experiment: Inhibition of RSK1 (unknown origin) at 0.164 uM relative to control
[29] = target: Activated CDC42 kinase 1 (Homo sapiens) (UniProt Q07912); experiment: Inhibition of ACK (unknown origin) at 0.164 uM relative to control
[30] = system: Tyrosine-protein kinase ABL1 (Homo sapiens), P00519 [G250E]; experiment: Inhibition of ABL1 G250E mutant (unknown origin) at 0.164 uM relative to control
[31] = target: CDK4/Cyclin D3 (Homo sapiens) (UniProt P11802+P30281); experiment: Inhibition of CDK4/CyclinD3 (unknown origin) at 0.45 uM relative to control; assay type: protein-complex assay
[32] = target: Ribosomal protein S6 kinase (Homo sapiens) (UniProt P51812+Q9UBS0+O75676+Q15349+O75582+P23443+Q9UK32+Q15418); experiment: Inhibition of p70S6K (unknown origin) at 0.45 uM relative to control; assay type: protein assay
[33] = target: Tyrosine-protein kinase Fes/Fps (Homo sapiens) (UniProt P07332); experiment: Inhibition of FES (unknown origin) at 0.45 uM relative to control
[34] = target: T1, Testis-specific serine/threonine-protein kinase 2 (Homo sapiens) (UniProt Q96PF2); experiment: Inhibition of TSSK2 (unknown origin) at 0.45 uM relative to control
T1 sequence (whole entry): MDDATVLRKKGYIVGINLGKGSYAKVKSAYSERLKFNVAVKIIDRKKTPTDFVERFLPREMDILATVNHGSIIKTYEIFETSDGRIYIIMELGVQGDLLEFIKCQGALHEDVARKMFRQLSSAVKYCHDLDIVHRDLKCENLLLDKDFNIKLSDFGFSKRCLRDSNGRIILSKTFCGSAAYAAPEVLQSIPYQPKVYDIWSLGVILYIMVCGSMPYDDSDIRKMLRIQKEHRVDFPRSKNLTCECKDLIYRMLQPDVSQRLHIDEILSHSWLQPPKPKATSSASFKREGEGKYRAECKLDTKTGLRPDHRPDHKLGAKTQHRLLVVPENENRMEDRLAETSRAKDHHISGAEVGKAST

Sequence of Activated CDC42 kinase 1 (Homo sapiens) (Q07912 whole entry, looked up): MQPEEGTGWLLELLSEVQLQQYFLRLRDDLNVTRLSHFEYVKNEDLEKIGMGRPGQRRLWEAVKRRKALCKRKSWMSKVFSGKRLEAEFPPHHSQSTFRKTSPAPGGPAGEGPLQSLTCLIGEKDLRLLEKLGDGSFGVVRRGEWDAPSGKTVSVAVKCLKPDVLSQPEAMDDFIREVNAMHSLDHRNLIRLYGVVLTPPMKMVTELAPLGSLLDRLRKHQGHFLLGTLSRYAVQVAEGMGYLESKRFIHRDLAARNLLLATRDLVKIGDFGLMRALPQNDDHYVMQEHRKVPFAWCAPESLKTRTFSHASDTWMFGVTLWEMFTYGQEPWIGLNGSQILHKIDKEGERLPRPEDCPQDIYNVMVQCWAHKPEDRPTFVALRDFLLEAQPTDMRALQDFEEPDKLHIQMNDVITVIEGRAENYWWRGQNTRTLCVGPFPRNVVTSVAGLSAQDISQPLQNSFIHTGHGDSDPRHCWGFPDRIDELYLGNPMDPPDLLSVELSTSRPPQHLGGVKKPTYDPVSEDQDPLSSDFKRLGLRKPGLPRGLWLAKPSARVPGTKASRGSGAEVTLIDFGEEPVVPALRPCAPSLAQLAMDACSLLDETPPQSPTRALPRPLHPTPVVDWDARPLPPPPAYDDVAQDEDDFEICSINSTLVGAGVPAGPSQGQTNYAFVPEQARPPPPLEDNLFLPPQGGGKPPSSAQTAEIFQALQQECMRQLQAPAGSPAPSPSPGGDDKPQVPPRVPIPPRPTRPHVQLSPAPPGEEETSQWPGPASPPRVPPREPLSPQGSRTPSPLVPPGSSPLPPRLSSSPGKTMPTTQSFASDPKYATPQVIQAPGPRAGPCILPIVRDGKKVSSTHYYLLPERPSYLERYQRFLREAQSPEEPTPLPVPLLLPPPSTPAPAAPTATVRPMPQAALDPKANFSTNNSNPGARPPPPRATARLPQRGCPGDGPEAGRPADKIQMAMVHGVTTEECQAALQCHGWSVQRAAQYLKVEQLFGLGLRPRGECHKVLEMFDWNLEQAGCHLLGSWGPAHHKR
Sequence of Misshapen-like kinase 1 (Homo sapiens) (Q8N4C8 whole entry, looked up): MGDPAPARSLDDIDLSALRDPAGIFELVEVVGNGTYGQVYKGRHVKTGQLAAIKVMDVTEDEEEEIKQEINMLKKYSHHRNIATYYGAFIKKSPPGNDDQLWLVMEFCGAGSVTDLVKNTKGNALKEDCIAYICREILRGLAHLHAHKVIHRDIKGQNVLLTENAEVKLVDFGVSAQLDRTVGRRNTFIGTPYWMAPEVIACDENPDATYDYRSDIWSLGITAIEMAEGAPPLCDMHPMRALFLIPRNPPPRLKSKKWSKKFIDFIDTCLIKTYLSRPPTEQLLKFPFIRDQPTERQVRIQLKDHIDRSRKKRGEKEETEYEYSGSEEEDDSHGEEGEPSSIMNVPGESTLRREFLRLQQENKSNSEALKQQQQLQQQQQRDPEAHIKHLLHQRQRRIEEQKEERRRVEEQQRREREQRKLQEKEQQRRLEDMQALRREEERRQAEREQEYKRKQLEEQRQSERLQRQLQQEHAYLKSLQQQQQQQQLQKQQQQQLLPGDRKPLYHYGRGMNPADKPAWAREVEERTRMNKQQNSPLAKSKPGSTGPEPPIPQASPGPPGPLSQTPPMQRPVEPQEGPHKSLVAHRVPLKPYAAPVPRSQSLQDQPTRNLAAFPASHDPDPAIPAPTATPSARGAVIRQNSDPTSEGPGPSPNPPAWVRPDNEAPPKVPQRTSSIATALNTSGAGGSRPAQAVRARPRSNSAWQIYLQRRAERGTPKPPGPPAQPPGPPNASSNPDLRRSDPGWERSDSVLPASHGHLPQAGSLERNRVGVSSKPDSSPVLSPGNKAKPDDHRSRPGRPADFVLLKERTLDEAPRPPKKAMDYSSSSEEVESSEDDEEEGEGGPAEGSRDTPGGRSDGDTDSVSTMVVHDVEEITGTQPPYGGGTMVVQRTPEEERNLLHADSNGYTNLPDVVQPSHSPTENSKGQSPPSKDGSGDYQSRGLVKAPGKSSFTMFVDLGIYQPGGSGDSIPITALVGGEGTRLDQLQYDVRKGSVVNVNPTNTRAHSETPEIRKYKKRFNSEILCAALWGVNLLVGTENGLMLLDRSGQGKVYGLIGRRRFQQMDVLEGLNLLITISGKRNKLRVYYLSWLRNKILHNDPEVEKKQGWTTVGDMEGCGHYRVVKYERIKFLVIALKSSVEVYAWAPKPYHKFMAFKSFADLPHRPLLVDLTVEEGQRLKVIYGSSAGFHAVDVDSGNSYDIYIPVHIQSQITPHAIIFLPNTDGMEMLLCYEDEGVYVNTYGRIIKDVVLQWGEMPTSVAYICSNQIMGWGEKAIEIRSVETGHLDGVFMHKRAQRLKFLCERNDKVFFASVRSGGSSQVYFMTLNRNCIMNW
Sequence of Receptor tyrosine-protein kinase erbB-4 (Homo sapiens) (Q15303 whole entry): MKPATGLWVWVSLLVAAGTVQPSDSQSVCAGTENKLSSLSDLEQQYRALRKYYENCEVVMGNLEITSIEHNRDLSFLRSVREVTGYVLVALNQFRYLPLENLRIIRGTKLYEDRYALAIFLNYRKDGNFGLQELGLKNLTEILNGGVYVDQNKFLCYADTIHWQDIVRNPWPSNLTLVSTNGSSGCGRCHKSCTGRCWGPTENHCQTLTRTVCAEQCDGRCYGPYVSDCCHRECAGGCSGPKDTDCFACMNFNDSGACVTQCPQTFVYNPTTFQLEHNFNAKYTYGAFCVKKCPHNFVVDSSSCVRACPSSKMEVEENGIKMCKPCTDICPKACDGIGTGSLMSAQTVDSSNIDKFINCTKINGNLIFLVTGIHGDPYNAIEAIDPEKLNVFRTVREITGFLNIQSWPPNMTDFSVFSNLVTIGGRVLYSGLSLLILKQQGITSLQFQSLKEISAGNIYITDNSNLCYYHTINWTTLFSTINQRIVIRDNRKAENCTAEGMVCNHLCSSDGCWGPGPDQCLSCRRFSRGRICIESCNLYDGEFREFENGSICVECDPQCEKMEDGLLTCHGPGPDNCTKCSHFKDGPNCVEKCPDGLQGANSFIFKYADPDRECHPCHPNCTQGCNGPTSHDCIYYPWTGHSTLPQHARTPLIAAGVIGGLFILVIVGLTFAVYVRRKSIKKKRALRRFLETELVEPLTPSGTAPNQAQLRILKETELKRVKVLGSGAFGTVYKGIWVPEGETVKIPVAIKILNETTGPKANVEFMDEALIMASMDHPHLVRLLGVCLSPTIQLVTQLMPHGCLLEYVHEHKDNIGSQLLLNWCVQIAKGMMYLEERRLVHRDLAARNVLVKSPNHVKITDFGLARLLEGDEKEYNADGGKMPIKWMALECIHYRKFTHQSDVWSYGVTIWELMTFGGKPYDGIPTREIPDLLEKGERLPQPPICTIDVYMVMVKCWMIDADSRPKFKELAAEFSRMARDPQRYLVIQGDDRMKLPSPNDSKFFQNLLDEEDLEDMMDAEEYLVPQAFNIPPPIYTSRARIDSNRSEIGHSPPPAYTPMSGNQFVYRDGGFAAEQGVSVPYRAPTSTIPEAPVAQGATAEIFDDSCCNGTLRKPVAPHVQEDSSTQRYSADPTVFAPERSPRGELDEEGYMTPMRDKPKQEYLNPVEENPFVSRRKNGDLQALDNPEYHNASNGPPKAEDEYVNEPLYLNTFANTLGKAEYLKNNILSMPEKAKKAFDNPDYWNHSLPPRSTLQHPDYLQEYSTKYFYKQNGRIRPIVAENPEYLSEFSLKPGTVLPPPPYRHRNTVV
Sequence of MAP kinase-activated protein kinase 2 (Homo sapiens) (P49137 whole entry, looked up): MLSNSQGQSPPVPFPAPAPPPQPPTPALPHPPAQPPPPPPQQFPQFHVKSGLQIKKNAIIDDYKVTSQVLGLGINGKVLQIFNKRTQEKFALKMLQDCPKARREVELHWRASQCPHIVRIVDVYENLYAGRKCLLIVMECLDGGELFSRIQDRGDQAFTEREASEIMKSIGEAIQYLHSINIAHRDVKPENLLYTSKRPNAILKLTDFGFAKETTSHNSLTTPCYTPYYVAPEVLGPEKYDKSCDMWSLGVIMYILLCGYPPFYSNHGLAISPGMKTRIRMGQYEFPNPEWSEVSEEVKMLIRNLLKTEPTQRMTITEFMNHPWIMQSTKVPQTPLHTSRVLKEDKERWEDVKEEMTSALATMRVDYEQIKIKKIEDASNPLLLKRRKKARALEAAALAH
Sequence of Discoidin domain-containing receptor 2 (Homo sapiens) (Q16832 whole entry, the tested form may be a part): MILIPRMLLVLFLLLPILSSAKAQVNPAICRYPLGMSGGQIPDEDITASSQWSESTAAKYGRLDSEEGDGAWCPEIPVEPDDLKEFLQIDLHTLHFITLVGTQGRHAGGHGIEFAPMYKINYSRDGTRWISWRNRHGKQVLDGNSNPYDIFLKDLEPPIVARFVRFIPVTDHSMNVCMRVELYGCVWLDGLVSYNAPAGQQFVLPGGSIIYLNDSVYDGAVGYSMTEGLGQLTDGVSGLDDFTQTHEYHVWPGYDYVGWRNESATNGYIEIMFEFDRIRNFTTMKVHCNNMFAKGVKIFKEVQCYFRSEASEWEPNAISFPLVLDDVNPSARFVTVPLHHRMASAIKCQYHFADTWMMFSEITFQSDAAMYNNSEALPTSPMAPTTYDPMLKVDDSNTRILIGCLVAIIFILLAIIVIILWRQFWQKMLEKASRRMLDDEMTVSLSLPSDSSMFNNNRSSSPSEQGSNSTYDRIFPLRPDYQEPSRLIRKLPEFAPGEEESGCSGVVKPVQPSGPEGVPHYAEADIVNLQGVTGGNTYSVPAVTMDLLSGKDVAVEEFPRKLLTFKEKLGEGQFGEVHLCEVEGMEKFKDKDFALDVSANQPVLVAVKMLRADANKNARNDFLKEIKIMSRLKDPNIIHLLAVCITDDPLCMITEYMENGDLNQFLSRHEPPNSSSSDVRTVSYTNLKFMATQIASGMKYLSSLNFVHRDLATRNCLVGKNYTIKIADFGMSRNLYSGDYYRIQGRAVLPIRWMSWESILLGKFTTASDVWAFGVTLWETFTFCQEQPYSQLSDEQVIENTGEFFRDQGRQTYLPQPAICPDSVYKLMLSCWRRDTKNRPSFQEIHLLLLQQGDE

inhibition [1]: -9.3% | inhibition [2]: -8.7% | inhibition [3]: 3.3% | inhibition [4]: 2.3% | inhibition [5]: 0% | inhibition [6]: 3% | inhibition [7]: -1.7% | inhibition [8]: 4.3% | inhibition [9]: 97% | inhibition [10]: 1.3% | inhibition [11]: -0.7% | inhibition [12]: 82.7% | inhibition [13]: -1.3% | inhibition [14]: 0.7% | inhibition [15]: 80.3% | inhibition [16]: 6.3% | inhibition [17]: 3.3% | inhibition [18]: 1.7% | inhibition [19]: 5.3% | inhibition [20]: 0.3% | inhibition [21]: 1.7%
Compound: Cc1[nH]nc(C2CC2)c1-c1ccc2c(-c3ccc(N4CCN(C)CC4)nc3)n[nH]c2c1

inhibition [22]: 6.3% | inhibition [23]: -4.3% | inhibition [24]: 1% | inhibition [25]: 9% | inhibition [26]: 4.3% | inhibition [27]: 0% | inhibition [28]: 17% | inhibition [29]: 0.7% | inhibition [30]: 7.3%
Compound: COC(=O)Nc1cc(-c2c(C3CC3)n[nH]c2C)cc2[nH]ncc12

inhibition [31]: -8.3% | inhibition [32]: 1.3% | inhibition [33]: -3.3% | inhibition [34]: -3%
Compound: Cc1n[nH]c(C)c1-c1ccc2c(NC(=O)c3ccc(N4CCN(C)CC4)cc3)n[nH]c2c1
